Experimental data taken from patent US12552767B2, “3-heteroaryl pyrrolidine and piperidine orexin receptor agonists” (Merck Sharp & Dohme LLC, priority 2020, dated 2026).

Biological target: T1, human OX2R (Homo sapiens, UniProt O43614)
T1 construct: expressed in transfected cells; host or cells: CHO (Chinese hamster ovary) cells, grown under G418 selection
T1 sequence (O43614 1-444): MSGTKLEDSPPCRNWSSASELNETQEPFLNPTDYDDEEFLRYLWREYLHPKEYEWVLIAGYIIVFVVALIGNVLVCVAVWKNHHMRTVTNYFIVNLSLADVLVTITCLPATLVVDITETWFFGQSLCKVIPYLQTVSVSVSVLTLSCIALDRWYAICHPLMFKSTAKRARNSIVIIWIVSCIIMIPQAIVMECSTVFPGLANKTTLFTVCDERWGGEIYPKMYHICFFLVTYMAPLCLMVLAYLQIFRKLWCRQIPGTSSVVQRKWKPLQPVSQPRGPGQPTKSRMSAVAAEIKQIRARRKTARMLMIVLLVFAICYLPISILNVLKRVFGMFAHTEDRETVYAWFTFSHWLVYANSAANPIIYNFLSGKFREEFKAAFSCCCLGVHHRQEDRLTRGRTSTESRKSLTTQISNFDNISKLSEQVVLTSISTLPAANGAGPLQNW
Assay: IP-One (IPOne) orexin receptor agonist assay in CHO cells expressing human OX2R
Format: cell-based
Conditions: for EC50: CHO cells expressing human OX2R, IP-One IP-1 detection, 2 hours incubation, four parameter logistic fit, read-out: OX2R Potency, EC50; for % of reference agonist maximal effect: human OX2R, percentage of sample raw value/mean max effect (reference compound at 1 uM with 100% activity)
Outline: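 CHO cells stably expressing human OX2R were stimulated with compound (10-point ½-log dilutions) for 2 h at 37 °C. IP-1 accumulation was read by HTRF (IP-One, 665/620 nm). EC50 from a four-parameter fit; % effect relative to 1 μM reference agonist control.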

Compound | EC50 [nM] | % of reference agonist maximal effect [%]
COC(=O)N1C[C@@H](C)C[C@H](c2ccn[nH]2)[C@@H]1CO[C@H]1CC[C@@H](c2ccccc2)CC1 (racemic) [Example 39, (+/−) methyl (2R,3S,5S)-5-methyl-2-((((CIS)-4-phenylcyclohexyl)oxy)methyl)-3-(1H-pyrazol-5-yl)piperidine-1-carboxylate] | 1980 | 94.8
COC(=O)N1CCC[C@H](c2n[nH]cc2C#N)[C@@H]1CO[C@H]1CC[C@@H](c2ccccc2)CC1 (single isomer, unassigned) [Example 51] | 227 | 99.0
Cc1c[nH]nc1[C@H]1CCCN(C(=O)OC(C)C)[C@H]1COC1CCN(c2ncccn2)CC1 (relative stereo) [Example 9, Isopropyl (CIS)-3-(4-methyl-1H-pyrazol-3-yl)-2-(((1-(pyrimidin-2-yl)piperidin-4-yl)oxy)methyl)piperidine-1-carboxylate] | 250 | 100.7
CC[C@H](C)OC(=O)N1CCC[C@H](c2cc[nH]n2)[C@@H]1CO[C@H]1CC[C@@H](c2ccccc2)CC1 [Example 116, (S)-sec-butyl (CIS)-2-((((CIS)-4-phenylcyclohexyl)oxy)methyl)-3-(1H-pyrazol-3-yl)piperidine-1-carboxylate] | 7760 | 56.1
CCNC(=O)N1CCC[C@H](c2ccn[nH]2)[C@@H]1CO[C@H]1CC[C@@H](C(C)C)CC1 (single isomer, unassigned) [Example 4] | 276 | 100.6
C#CCCCC(=O)N1CCC[C@H](c2cc[nH]n2)[C@@H]1CO[C@H]1CC[C@@H](C(C)C)CC1 (relative stereo) [Example 86, 1-((CIS)-2-((((CIS)-4-isopropylcyclohexyl)oxy)methyl)-3-(1H-pyrazol-3-yl)piperidin-1-yl)hex-5-yn-1-one] | 8390 | 64.7
C#CCOC(=O)N1CCC[C@H](c2cc[nH]n2)[C@@H]1CO[C@H]1CC[C@@H](C(C)C)CC1 (relative stereo) [Example 95, prop-2-yn-1-yl (CIS)-2-((((CIS)-4-isopropylcyclohexyl)oxy)methyl)-3-(1H-pyrazol-3-yl)piperidine-1-carboxylate] | 8770 | 79.7
COC(=O)N1CCC[C@@H](c2n[nH]cc2C(F)F)[C@H]1CO[C@H]1CC[C@@H](c2ccccc2)CC1 [Example 56, Methyl (2S,3R)-3-(4-(difluoromethyl)-pH-pyrazol-3-yl)-2-((((CIS)-4-phenylcyclohexyl)oxy)methyl) piperidine-1-carboxylate] | 3070 | 66.9
O=C(NC1COC1)N1CCC[C@H](c2cc[nH]n2)[C@@H]1CO[C@H]1CC[C@@H](c2ccccc2)CC1 (relative stereo) [Example 127, (CIS)-N-(oxetan-3-yl)-2-((((CIS)-4-phenylcyclohexyl)oxy)methyl)-3-(1H-pyrazol-3-yl)piperidine-1-carboxamide] | 4380 | 72
C[C@H]1C[C@H]1C(=O)N1CCC[C@H](c2cc[nH]n2)[C@@H]1COC1CCC(c2ccccc2)CC1 (stereo partly drawn) [Example 69, ((CIS)-2-methylcyclopropyl)((2R,3S)-2-((((1s,4S)-4-phenylcyclohexyl)oxy)methyl)-3-(1H-pyrazol-3-yl)piperidin-1-yl)methanone] | 278 | 99.2
CCC[C@](C)(F)C(=O)N1CCC[C@H](c2cc[nH]n2)[C@@H]1COC1CCC(C(C)C)CC1 (stereo partly drawn) [Example 89, (S)-2-fluoro-1-((CIS)-2-((((CIS)-4-isopropylcyclohexyl)oxy)methyl)-3-(1H-pyrazol-3-yl)piperidin-1-yl)-2-methylpentan-1-one] | 9770 | 55.8
COC(=O)N1CCC[C@H](c2n[nH]cc2CO)[C@@H]1CO[C@H]1CC[C@@H](c2ccccc2)CC1 [Example 53] | 104 | 100.5
COC(=O)N1CCC[C@H](c2nc(O)sc2C)[C@@H]1CO[C@H]1CC[C@@H](c2ccccc2)CC1 (relative stereo) [Example 2, Methyl (CIS)-3-(2-hydroxy-5-methylthiazol-4-yl)-2-((((CIS)-4-phenylcyclohexyl)oxy)-methyl)piperidine-1-carboxylate] | 15.1 | 101.9
COC(=O)N1CCCC(c2ccn[nH]2)C1CO[C@H]1CC[C@@H](c2c(F)ccc(F)c2F)CC1 (stereo partly drawn) [Example 29] | 1360 | 81.4
CCNC(=O)N1CCCC(c2[nH]ncc2C)C1COC1CCC(C(C)C)CC1 (single isomer, unassigned) [Example 58, N-ethyl-2-(((4-isopropylcyclohexyl)oxy)methyl)-3-(4-methyl-1H-pyrazol-5-yl)piperidine-1-carboxamide] | > 10000 | 0
CC[C@@H](C)NC(=O)N1CCC[C@H](c2cc[nH]n2)[C@@H]1CO[C@H]1CC[C@@H](c2ccccc2)CC1 [Example 128, (CIS)-N-((R)-sec-butyl)-2-((((CIS)-4-phenylcyclohexyl)oxy)methyl)-3-(1H-pyrazol-3-yl)piperidine-1-carboxamide] | 5940 | 69.6
O=C(OC(CF)CF)N1CCC[C@H](c2cc[nH]n2)[C@@H]1CO[C@H]1CC[C@@H](c2ccccc2)CC1 (relative stereo) [Example 113, 1,3-difluoropropan-2-yl (CIS)-2-((((CIS)-4-phenylcyclohexyl)oxy)methyl)-3-(1H-pyrazol-3-yl)piperidine-1-carboxylate] | 6670 | 57.4
COCCCOC(=O)N1CCC[C@H](c2cc[nH]n2)[C@@H]1CO[C@H]1CC[C@@H](c2ccccc2)CC1 (relative stereo) [Example 118, 3-methoxypropyl (CIS)-2-((((CIS)-4-phenylcyclohexyl)oxy)methyl)-3-(1H-pyrazol-3-yl)piperidine-1-carboxylate] | 8960 | 47.9
CC(C)[C@H]1CC[C@@H](OC[C@H]2[C@@H](c3cc[nH]n3)CCCN2C(=O)NCc2ccccc2)CC1 (relative stereo) [Example 122, (CIS)-N-benzyl-2-((((CIS)-4-isopropylcyclohexyl)oxy)methyl)-3-(1H-pyrazol-3-yl)piperidine-1-carboxamide] | 2420 | 93.6
O=C(Oc1cccnc1)N1CCC[C@H](c2cc[nH]n2)[C@@H]1CO[C@H]1CC[C@@H](c2ccccc2)CC1 (relative stereo) [Example 101, pyridin-3-yl (CIS)-2-((((CIS)-4-phenylcyclohexyl)oxy)methyl)-3-(1H-pyrazol-3-yl)piperidine-1-carboxylate] | 2510 | 77.7
O=C(NCC(F)(F)F)N1CCCC(c2ccn[nH]2)C1CO[C@H]1CC[C@@H](c2c(F)ccc(F)c2F)CC1 (stereo partly drawn) [Example 34] | 17.8 | 99.9
